Patent US12187723B2 (BRISTOL-MYERS SQUIBB COMPANY, priority 2019, dated 2025)

biological target: T1, human TLR8 (Homo sapiens, UniProt Q9NR97); experiment: TLR8 inhibition reporter assay (HEK-Blue SEAP); format: cell-based; details: HEK-Blue cells overexpressing human TLR8, R848 15.9 μM, 22 hour incubation
T1 construct: host or cells: HEK-Blue cells
T1 sequence (Q9NR97 27-1041): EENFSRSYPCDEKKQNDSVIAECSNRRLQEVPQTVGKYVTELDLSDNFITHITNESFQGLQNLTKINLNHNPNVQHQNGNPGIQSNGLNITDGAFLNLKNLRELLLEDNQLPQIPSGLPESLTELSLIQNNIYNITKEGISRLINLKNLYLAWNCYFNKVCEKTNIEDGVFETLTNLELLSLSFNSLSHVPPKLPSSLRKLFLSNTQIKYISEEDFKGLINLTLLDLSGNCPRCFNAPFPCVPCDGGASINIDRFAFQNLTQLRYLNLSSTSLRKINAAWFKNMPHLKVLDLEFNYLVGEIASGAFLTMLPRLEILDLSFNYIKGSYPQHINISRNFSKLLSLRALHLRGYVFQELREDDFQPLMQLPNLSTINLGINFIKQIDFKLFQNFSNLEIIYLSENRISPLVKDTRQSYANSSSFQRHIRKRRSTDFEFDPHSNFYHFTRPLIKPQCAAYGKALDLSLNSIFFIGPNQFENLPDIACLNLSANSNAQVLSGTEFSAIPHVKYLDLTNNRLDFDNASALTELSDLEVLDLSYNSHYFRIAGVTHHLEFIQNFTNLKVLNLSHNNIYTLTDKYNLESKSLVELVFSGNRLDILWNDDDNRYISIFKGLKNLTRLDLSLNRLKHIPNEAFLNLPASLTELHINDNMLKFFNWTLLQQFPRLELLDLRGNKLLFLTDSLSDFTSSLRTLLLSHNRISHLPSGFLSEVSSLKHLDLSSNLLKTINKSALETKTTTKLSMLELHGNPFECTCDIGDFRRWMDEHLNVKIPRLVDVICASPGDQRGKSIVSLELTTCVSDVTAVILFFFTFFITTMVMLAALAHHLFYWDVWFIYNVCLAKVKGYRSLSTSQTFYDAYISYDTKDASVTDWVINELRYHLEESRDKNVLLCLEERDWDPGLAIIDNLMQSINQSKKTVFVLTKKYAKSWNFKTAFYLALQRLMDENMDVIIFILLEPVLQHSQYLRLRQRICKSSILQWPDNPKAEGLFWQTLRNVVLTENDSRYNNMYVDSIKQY
Protocol: TLR7/8/9 Inhibition Reporter Assays
HEK-Blue™-cells (Invivogen) overexpressing human TLR7, TLR8 or TLR9 receptors were used for screening inhibitors of these receptors using an inducible SEAP (secreted embryonic alkaline phosphatase) reporter gene under the control of the IFN-β minimal promoter fused to five NF-κB and AP-1-binding sites. Briefly, cells are seeded into Greiner 384 well plates (15000 cells per well for TLR7, 20,000 for TLR8 and 25,000 for TLR9) and then treated with test compounds in DMSO to yield a final dose response concentration range of 0.05 nM-50 μM. After a 30 minute compound pre-treatment at room temperature, the cells are then stimulated with a TLR7 ligand (gardiquimod at a final concentration of 7.5 μM), TLR8 ligand (R848 at a final concentration of 15.9 μM) or TLR9 ligand (ODN2006 at a final concentration of 5 nM) to activate NF-κB and AP-1 which induce the production of SEAP. After a 22 hour incubation at 37° C., 5% CO2, SEAP levels are determined with the addition of HEK-Blue™ Detection reagent (Invivogen), a cell culture medium that allows for detection of SEAP, according to manufacturer's specifications. The percent inhibition is determined as the % reduction in the HEK-Blue signal present in wells treated with agonist plus DMSO alone compared to wells treated with a known inhibitor.

| Compound | IC50 [nM] |
| --- | --- |
| Cc1cc2c(cc1-c1cc(C)c3ncnn3c1)[nH]c(=O)n2C1CCN(C)CC1 [Example 3, 6-methyl-5-(8-methyl-[1,2,4]triazolo[1,5-a]pyridin-6-yl)-1-(1-methylpiperidin-4-yl)-1,3-dihydro-2H-benzo[d]imidazol-2-one] | 36.8 |
| Cc1cc(-c2ccc3c(c2)[nH]c(=O)n3C2CCN(C)CC2)cn2ncnc12 [Example 4, 5-(8-methyl-[1,2,4]triazolo[1,5-a]pyridin-6-yl)-1-(1-methylpiperidin-4-yl)-1,3-dihydro-2H-benzo[d]imidazol-2-one] | 1280 |
| Cc1cc(-c2ccc3c(c2)[nH]c(=O)n3C2CCN(C(C)C)CC2)cn2ncnc12 [Example 5, 1-(1-isopropylpiperidin-4-yl)-5-(8-methyl-[1,2,4]triazolo[1,5-a]pyridin-6-yl)-1,3-dihydro-2H-benzo[d]imidazol-2-one] | > 3130 |
| CCN1CCC(n2c(=O)[nH]c3cc(-c4cc(C)c5ncnn5c4)c(C)cc32)CC1 [Example 6, 1-(1-ethylpiperidin-4-yl)-6-methyl-5-(8-methyl-[1,2,4]triazolo[1,5-a]pyridin-6-yl)-1,3-dihydro-2H-benzo[d]imidazol-2-one] | 46.3 |
| CCCN1CCC(n2c(=O)[nH]c3cc(-c4cc(C)c5ncnn5c4)c(C)cc32)CC1 [Example 7, 6-methyl-5-(8-methyl-[1,2,4]triazolo[1,5-a]pyridin-6-yl)-1-(1-propylpiperidin-4-yl)-1,3-dihydro-2H-benzo[d]imidazol-2-one] | 48.6 |
| CCN1CCC(n2c(=O)[nH]c3cc(-c4cc(OC)c5ncnn5c4)c(C)cc32)CC1 [Example 9, 1-(1-ethylpiperidin-4-yl)-5-(8-methoxy-[1,2,4]triazolo[1,5-a]pyridin-6-yl)-6-methyl-1,3-dihydro-2H-benzo[d]imidazol-2-one] | 92.7 |
| COc1cc(-c2cc3[nH]c(=O)n(C4CCN(C(C)C)CC4)c3cc2C)cn2ncnc12 [Example 10, 1-(1-isopropylpiperidin-4-yl)-5-(8-methoxy-[1,2,4]triazolo[1,5-a]pyridin-6-yl)-6-methyl-1,3-dihydro-2H-benzo[d]imidazol-2-one] | 89.7 |
| Cc1cc2c(cc1-c1cc(C)c3ncnn3c1)[nH]c(=O)n2[C@@H]1CCCN(CC(N)=O)C1 [Example 94, (R)-2-(3-(6-methyl-5-(8-methyl-[1,2,4]triazolo[1,5-a]pyridin-6-yl)-2-oxo-2,3-dihydro-1H-benzo[d]imidazol-1-yl)piperidin-1-yl)acetamide] | 339 |
| Cc1cc2c(cc1-c1cc(C)c3ncnn3c1)[nH]c(=O)n2[C@@H]1CCCN(CC(=O)N(C)C)C1 [Example 95, (R)—N,N-dimethyl-2-(3-(6-methyl-5-(8-methyl-[1,2,4]triazolo[1,5-a]pyridin-6-yl)-2-oxo-2,3-dihydro-1H-benzo[d]imidazol-1-yl)piperidin-1-yl)acetamide] | 83.4 |
| Cc1cc2c(cc1-c1cc(C)c3ncnn3c1)[nH]c(=O)n2[C@@H]1CCCN(CC#N)C1 [Example 96, (R)-2-(3-(6-methyl-5-(8-methyl-[1,2,4]triazolo[1,5-a]pyridin-6-yl)-2-oxo-2,3-dihydro-1H-benzo[d]imidazol-1-yl)piperidin-1-yl)acetonitrile] | 45.3 |
| COCCN1CCC[C@@H](n2c(=O)[nH]c3cc(-c4cc(C)c5ncnn5c4)c(C)cc32)C1 [Example 97, (R)-1-(1-(2-methoxyethyl)piperidin-3-yl)-6-methyl-5-(8-methyl-[1,2,4]triazolo[1,5-a]pyridin-6-yl)-1,3-dihydro-2H-benzo[d]imidazol-2-one] | 43.7 |
| COCCN1CCC[C@@H](n2c(=O)[nH]c3cc(-c4cc(OC)c5ncnn5c4)c(C)cc32)C1 [Example 98, (R)-5-(8-methoxy-[1,2,4]triazolo[1,5-a]pyridin-6-yl)-1-(1-(2-methoxyethyl)piperidin-3-yl)-6-methyl-1,3-dihydro-2H-benzo[d]imidazol-2-one] | 60.6 |
| Cc1cc(-c2cc(C)c3ncnn3c2)cc2[nH]c(=O)n(C3CCN(C)CC3)c12 [Example 106, 7-methyl-5-(8-methyl-[1,2,4]triazolo[1,5-a]pyridin-6-yl)-1-(1-methylpiperidin-4-yl)-1,3-dihydro-2H-benzo[d]imidazol-2-one] | 150 |

Next, values leading:

| IC50 [nM] | Compound |
| --- | --- |
| 2.63 | COc1cc(-c2cc3[nH]c(=O)n([C@H]4CCCN(CC5CC5)C4)c3cc2C(C)C)cn2ncnc12 (single isomer, unassigned) [Example 128] |
| 5.02 | CCN1CCC[C@@H](n2c(=O)[nH]c3cc(-c4cc(OC)c5ncnn5c4)c(C(C)C)cc32)C1 (single isomer, unassigned) [Example 144] |
| 354 | COc1cc(-c2cc3[nH]c(=O)n([C@@H]4CCCN(CC(=O)N(C)C)C4)c3cc2C)cn2ncnc12 [Example 99, (R)-2-(3-(5-(8-methoxy-[1,2,4]triazolo[1,5-a]pyridin-6-yl)-6-methyl-2-oxo-2,3-dihydro-1H-benzo[d]imidazol-1-yl)piperidin-1-yl)-N,N-dimethylacetamide] |
| 175 | COc1cc(-c2cc3[nH]c(=O)n(C4CCN(C(=O)CN(C)C)CC4)c3cc2C)cn2ncnc12 [Example 100, 1-(1-(2-(dimethylamino)acetyl)piperidin-4-yl)-5-(8-methoxy-[1,2,4]triazolo[1,5-a]pyridin-6-yl)-6-methyl-1H-benzo[d]imidazol-2(3H)-one] |
| 50.3 | Cc1cc2c(cc1-c1cc(C)c3ncnn3c1)[nH]c(=O)n2C1CCN(C(=O)CN(C)C)CC1 [Example 101, 1-(1-(dimethylglycyl)piperidin-4-yl)-6-methyl-5-(8-methyl-[1,2,4]triazolo[1,5-a]pyridin-6-yl)-1,3-dihydro-2H-benzo[d]imidazol-2-one] |
| > 3130 | Cc1cc(-c2ccc3c(c2)[nH]c(=O)n3C2CCN(C(=O)CN(C)C)CC2)cn2ncnc12 [Example 102, 1-(1-(dimethylglycyl)piperidin-4-yl)-5-(8-methyl-[1,2,4]triazolo[1,5-a]pyridin-6-yl)-1,3-dihydro-2H-benzo[d]imidazol-2-one] |
| 205 | Cc1cc2c(cc1-c1cc(C)c3ncnn3c1)[nH]c(=O)n2[C@H]1CCCN(C(=O)CN(C)C)C1 [Example 103, (S)-1-(1-(dimethylglycyl)piperidin-3-yl)-6-methyl-5-(8-methyl-[1,2,4]triazolo[1,5-a]pyridin-6-yl)-1,3-dihydro-2H-benzo[d]imidazol-2-one] |
| 47.6 | Cc1cc2c(cc1-c1cc(C)c3ncnn3c1)[nH]c(=O)n2[C@@H]1CCCN(C(=O)CN(C)C)C1 [Example 104, (R)-1-(1-(dimethylglycyl)piperidin-3-yl)-6-methyl-5-(8-methyl-[1,2,4]triazolo[1,5-a]pyridin-6-yl)-1,3-dihydro-2H-benzo[d]imidazol-2-one] |
| 318 | COc1cc(-c2cc3[nH]c(=O)n(C4CCCN(C(=O)CN(C)C)C4)c3cc2C)cn2ncnc12 (stereo not drawn) [Example 105, 1-(1-(dimethylglycyl)piperidin-3-yl)-5-(8-methoxy-[1,2,4]triazolo[1,5-a]pyridin-6-yl)-6-methyl-1,3-dihydro-2H-benzo[d]imidazol-2-one] |
| 249 | Cc1cc(-c2cc(C)c3ncnn3c2)cc2[nH]c(=O)n(C3CCN(C(C)C)CC3)c12 [Example 107, 1-(1-isopropylpiperidin-4-yl)-7-methyl-5-(8-methyl-[1,2,4]triazolo[1,5-a]pyridin-6-yl)-1,3-dihydro-2H-benzo[d]imidazol-2-one] |
| 83.1 | CCN1CCC(n2c(=O)[nH]c3cc(-c4cc(C)c5ncnn5c4)cc(C)c32)CC1 [Example 108, 1-(1-ethylpiperidin-4-yl)-7-methyl-5-(8-methyl-[1,2,4]triazolo[1,5-a]pyridin-6-yl)-1,3-dihydro-2H-benzo[d]imidazol-2-one] |
